Experimental data: US20260234115A1, “LIPID COMPOUNDS, COMPOSITIONS, AND USES THEREOF” (Liberate Bio, Inc., priority 2023, published 2026)
Marks after values point to notes of the source that are not given here.

Legend:
mouse organs = assay: In vivo activity screening in mice: organ mean total flux (p/s) of luciferase activity after injection of F2 LNP pools (Table 6, FIG. 7A-7C); conditions: Mouse 1, dose 0.3 mg/kg, luciferase mRNA
Method in brief: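 Luciferase output per organ is reported as mean total flux (p/s) from IVIS regions of interest. Organs were collected from perfused C57BL/6J mice and imaged 10-15 min after s.c. D-luciferin, 4-6 h after i.v. dosing. Dosing was 0.25-3 mg/kg luciferase mRNA in F2 LNP pools.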

[1] = Plate-based fluorescence (RiboGreen) assay: nucleic acid cargo content and encapsulation efficiency of LNPs; assay type: physicochemical; conditions: for EE (%) N/P:6: LNP
Protocol: (§1) Lipids and active ingredients (e.g., RNA, DNA, etc.) were assembled into LNPs using microfluidic mixing. An ethanol phase was prepared by solubilizing ionizable lipids (i.e., lipid compounds), phospholipids (e.g., DSPC), cholesterol, and PEG lipids in ethanol, at predetermined mol % ratios given in Table 2. An aqueous phase was prepared by diluting a nucleic acid cargo (e.g., firefly luciferase mRNA) in an acidified buffer (pH 4.0 citrate buffer, 50 mM). A chip with microfluidic mixing architecture (e.g., toroidal mixer) was used to mix the two phases at predetermined flow rate ratios (e.g., 9 ml/min for the aqueous phase and 3 ml/min for the ethanol phase). Resulting LNPs comprising the lipids and encapsulating the nucleic acid cargo were dialyzed against PBS pH 7.4 for 2 hours at room temperature in a 20 kDa MWCO dialysis membrane. Then, PBS was refreshed to continue dialysis overnight at 2-8 TC. Upon completion of the buffer exchange, LNPs were optionally concentrated using a ultracentrifugal unit with a 10-100 kDa MWCO membrane.
c. Plate-Based Fluorescence (RiboGreen) Assay
Nucleic acid cargos in the LNPs were quantified by RiboGreen assay, against a nucleic acid standard curve. LNPs encapsulating nucleic acid cargo were mixed with 1× Tris-EDTA (TE) and 2% triton in TE, separately, to achieve dilutions required by the assay. Then, the samples were heated at 30° C. and vortexed at 300 rpm. Samples were plated into 96-well plates and RiboGreen reagent was added into each well. Following incubation in the dark, fluorescence was measured from the wells, and plotted against the standard curve. Nucleic acid concentration obtained from the Triton-treated samples were used for total cargo concentration quantification. Only TE diluted sample fluorescence values were used to determine the non-encapsulated (free) cargo, and their ratio was used to determine the encapsulation efficiency (EE %).

[2] = Dynamic light scattering: LNP particle size and PDI; assay type: physicochemical; conditions: for PDI N/P:6 / Size (nm) N/P:6: LNP
Protocol: as §1
d. Dynamic Light Scattering
LNPs were diluted with PBS pH 7.4 to predetermined dilution ranges based on the process step and LNP concentration. Following mixing, the particle size and PDI were measured by a dynamic light scattering instrument.

[3] = LNP compositions for in vivo mouse study, four formulations (F1-F4) pooled, or pools of four compounds
[4] = LNP compositions for in vivo mouse study, four formulations (F1-F4) of the lipid compound pooled, or pools of four compounds (sixteen compositions)
[5] = LNP compositions for Formulation F2 Study

| SMILES | Organ Mean Total Flux Femur (mouse organs) | Organ Mean Total Flux Heart (mouse organs) | Organ Mean Total Flux Kidney (mouse organs) | Organ Mean Total Flux Liver (mouse organs) | EE % [1, 3] [%] | mRNA Content [1, 3] [µg/mL] | EE (%) N/P:6 ([1]; Formulation F1, N/P 6) [%] | EE (%) N/P:6 ([1]; Formulation F2, N/P 6) [%] | EE (%) N/P:6 ([1]; Formulation F3, N/P 6) [%] | EE (%) N/P:6 ([1]; Formulation F4, N/P 6) [%] | Particle Size (nm) [2, 4] [nm] | PDI [2, 3] | PDI N/P:6 ([2]; Formulation F1, N/P 6) | Size (nm) N/P:6 ([2]; Formulation F1, N/P 6) [nm] | PDI N/P:6 ([2]; Formulation F2, N/P 6) | Size (nm) N/P:6 ([2]; Formulation F2, N/P 6) [nm] | PDI N/P:6 ([2]; Formulation F3, N/P 6) | Size (nm) N/P:6 ([2]; Formulation F3, N/P 6) [nm] | PDI N/P:6 ([2]; Formulation F4, N/P 6) | Size (nm) N/P:6 ([2]; Formulation F4, N/P 6) [nm] | also measured |
| --- | --- | --- | --- | --- | --- | --- | --- | --- | --- | --- | --- | --- | --- | --- | --- | --- | --- | --- | --- | --- | --- |
| CCCCC/C=C\CCOC(=O)CCCCCCC(=O)OCC(COC(=O)CCCCCCC(=O)OCC/C=C\CCCCC)(COC(=O)CCC(CCCCCC)OC(=O)NCCN1CCCC1)COC(=O)CC12CC3CC(CC(C3)C1)C2 (centres unmarked) [Compound 11, O8-[2-[[2-(1-adamantyl)acetyl]oxymethyl]-2-[[8-[(Z)-non-3-enoxy]-8-oxo-octanoyl]oxymethyl]-3-[4-(2-pyrrolidin-1-ylethylcarbamoyloxy)decanoyloxy]propyl]O1-[(Z)-non-3-enyl]octanedioate] | 5.3 p/s (×10^6) | 2.3 p/s (×10^6) | 2.4 p/s (×10^6) | 5140 p/s (×10^6) | 97 | 105 | 100 | 100 | 97 | 99 | 86 | 0.13 | 0.16 | 77 ± 7 | 0.11 | 88 ± 3 | 0.14 | 91 ± 1 | 0.30 | 74 ± 2 | Organ Mean Total Flux Lung (mouse organs): 27.7 p/s (×10^6); Organ Mean Total Flux Muscle (mouse organs): 21.8 p/s (×10^6); Organ Mean Total Flux Pancreas (mouse organs): 6.0 p/s (×10^6); Organ Mean Total Flux Spleen (mouse organs): 32.3 p/s (×10^6) |
| CCCCC/C=C\CCOC(=O)CCCCCC(=O)OCC(COC(=O)CCCCCC(=O)OCC/C=C\CCCCC)(COC(=O)CCC(CCCCCC)OC(=O)NCCN1CCCC1)COC(=O)CCC(OCCCCCCCC)OCCCCCCCC (centres unmarked) [Compound 9, O7-[2-(4,4-dioctoxybutanoyloxymethyl)-2-[[7-[(Z)-non-3-enoxy]-7-oxo-heptanoyl]oxymethyl]-3-[4-(2-pyrrolidin-1ylethylcarbamoyloxy)decanoyloxy]propyl]O1-[(Z)-non-3-enyl]heptanedioate] | 7.6 p/s (×10^6) | 1.4 p/s (×10^6) | 3.4 p/s (×10^6) | 3583 p/s (×10^6) | 97 | 102 | 100 | 100 | 99 | 99 | 79 | 0.07 | 0.07 | 68 ± 2 | 0.03 | 76 ± 1 | 0.03 | 92 ± 2 | 0.13 | 63 ± 1 | Organ Mean Total Flux Lung (mouse organs): 29.8 p/s (×10^6); Organ Mean Total Flux Muscle (mouse organs): 8.3 p/s (×10^6); Organ Mean Total Flux Pancreas (mouse organs): 6.7 p/s (×10^6); Organ Mean Total Flux Spleen (mouse organs): 32.5 p/s (×10^6) |
| CCCCC/C=C\CCOC(=O)CCCCCC(=O)OCC(COC(=O)CCCCCCOC(=O)C(CCCC)CCCCCC)(COC(=O)CCCCCC(=O)OCC/C=C\CCCCC)COC(=O)CCC(CCCCCC)OC(=O)NCCN1CCCC1 (centres unmarked) [Compound 16, O7-[2-[7-(2-butyloctanoyloxy)heptanoyloxymethyl]-2-[[7-[(Z)-non-3-enoxy]-7-oxo-heptanoyl]oxymethyl]-3-[4-(2-pyrrolidin-1-ylethylcarbamoyloxy)decanoyloxy]propyl]O1-[(Z)-non-3-enyl]heptanedioate] | – | – | – | – | 96 | 84 | 99 | 99 | 98 | 99 | 82.6 | 0.125 | 0.14 | 73 ± 7 | 0.07 | 82 ± 2 | 0.04 | 92 ± 0 | 0.15 | 64 ± 0 | – |
| CCCCCCC(CCC(=O)OCC(COC(=O)CCCCCCOC(=O)C(CCCC)CCCCCC)(COC(=O)CCCCCCOC(=O)C(CCCC)CCCCCC)COC(=O)CCCCCCOC(=O)C(CCCC)CCCCCC)OC(=O)NCCN1CCCC1 (centres unmarked) [Compound 18, [7-[2,2-bis[7-(2-butyloctanoyloxy)heptanoyloxymethyl]-3-[4-(2-pyrrolidin-1-ylethylcarbamoyloxy)decanoyloxy]propoxy]-7-oxo-heptyl]2-butyloctanoate] | – | – | – | – | 97 | 100 | 99 | 99 | 99 | 99 | 81.1 | 0.066 | 0.04 | 67 ± 1 | 0.02 | 78 ± 1 | 0.03 | 96 ± 2 | 0.05 | 65 ± 2 | EE % [1, 5]: 98%; PDI [2, 5]: 0.059; Particle Size (nm) [2, 5]: 92.2 nm |
